Tests used:
[1] = system: active RhoA in MDA-MB-231 cells; test: Active GTPase pull-down (GST-Rhotekin RBD); assay type: cell-based, human; details: 0-3 μM, 1 h
Protocol: FIG. 5: Cytoskeletal changes induced by IODVA1 treatment. IODVA1 inhibits lamellipodia and circular dorsal ruffle (CDR) formation in MDA-MB-231 cells and decreases Rac activation. (A) IODVA1 inhibits EGF-induced lamellipodia formation in MDA-MB-231 cells. MDA-MB-231 cells were plated on fibronectin-coated coverslips, serum starved for 4 h, incubated with the indicated concentrations of IODVA1 for 1 h, then EGF (50 ng/mL) stimulated, fixed and stained with Phalloidin Alexa Fluor 594 (F-Actin, pseudocolored red) and DAPI (nuclei, pseudocolored blue). […] The percentage of cells with CDRs was counted as the number of cells with CDRs normalized to the total number of cells in the field. Around 150 cells were counted per condition per experiment. Cells with multiple CDRs were counted only once. […] Levels of active Rac (RacGTP, % of control), active Cdc42 (Cdc42GTP, % of control) and active RhoA (RhoAGTP, % of control) were quantified using ImageJ and ImageLab and show combined data as mean±s.e.m. from at least 3 independent experiments. […]
To confirm that IODVA1 interferes with Rac activation, applicants checked the levels of active Rac and its downstream effector PAK1/2. MDA-MB-231 cells were incubated with IODVA1 (0-3 μM) for 1 h and levels of GTP-bound active Rac were measured by GST-PAK-GBD pull-downs and quantified (FIG. 5C). […]

[2] = system: Rac-dependent and -independent effectors in EGFP+/B220+ LDBM cells; test: Pharmacodynamic phospho-flow analysis of leukemic progenitor cells from treated p210(T315I) mice; assay type: in vivo; details: two-week treated mice
Description: LDBM cells were transduced with TKI-resistant p210-BCR-ABL1(T315I) (gatekeeper mutant) and transplanted into recipient mice as in FIG. 10. Pumps were surgically introduced into mice (N=5 per treatment group) and treatment lasted 28 days or two rounds of pumps. After 28 days, mice were monitored without any additional treatment. (A) Kaplan-Meier survival plot of imatinib-resistant mice. […] (B) Flow cytometric analysis of leukemic progenitor (EGFP^+) B-cells in peripheral blood (PB) at the indicated week. Only IODVA1-treated mice remained alive for analysis at weeks 5, 7, and 10.
To assess signaling pathways affected by IODVA1. EGFP^+/B220^+ LDBM cells were isolated from two-week treated p210(T315I) mice, stained with phospho-antibodies against the pro-proliferative Rac-dependent effectors JNK, PAK, 4EBP, and S6 and the Rac-independent effectors ERK1/2, STAT3, STAT5, p38, and AKT, and analyzed by flow cytometry. […] Phosphorylation levels of p38, ERK, STAT3, STAT5, and AKT were not affected by IODVA1. […] Taken together, IODVA1 not only overcomes TKI-resistance but also eliminates TKI-resistant leukemic stem/progenitor cells likely by acting on imatinib-independent growth signaling pathways that involve Rac effectors.

OC1(c2ccccn2)N=C(Nc2nc3ccccc3[nH]2)N=C1c1ccccn1 (stereo not drawn) [IODVA1, (Z)-2-((1H-benzo[d]imidazol-2-yl)imino)-4,5-di(pyridin-2-yl)-2,5-dihydro-1H-imidazol-5-ol]
levels of active RhoA [1]: not affected | phosphorylation levels of p38, ERK, STAT3, STAT5, and AKT [2]: not affected | decrease in pS6 ([2]; p=0.0012): 17.8% | decrease in pPAK ([2]; p=0.0016): 56% | decrease in pJNK ([2]; p=0.0029): 55% | decrease in p4EBP ([2]; p=0.037): 20.3%
